Laboratory results: patent US20090131481A1, “Transcription Factor Modulating Compounds and Methods of Use Thereof” (Paratek Pharmaceuticals, Inc., published 2009)
Read-outs that look alike come from different tables or passages of the source.

What was measured:
[1] = biological target: T1, SoxS (Escherichia coli, UniProt P0A9E2); assay: Chemiluminescence-based SoxS-DNA binding assay; design: made in house; species or system E. coli; settings: for inhibition at 25 µg/mL: compound screening concentration of 25 μg/ml (footnote d); for EC50: dose response analysis (footnote c), read-out: in vitro SoxS activity: concentration necessary to inhibit DNA-protein binding by 50% (EC50)
T1 sequence (P0A9E2 1-107): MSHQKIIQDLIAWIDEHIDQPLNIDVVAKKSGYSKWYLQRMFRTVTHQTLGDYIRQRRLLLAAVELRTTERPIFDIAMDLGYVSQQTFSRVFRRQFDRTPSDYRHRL

[2] = tested on: E. coli UPEC strain C189; assay: Ascending pyelonephritis model of infection (Example 3); assay type: in vivo; settings: female CD1 mice, oral dosing at infection and once a day for 4 days, 5-day infection
[3] = biological target: T2, ExsA (Pseudomonas aeruginosa, UniProt P26993); assay: Chemiluminescence-based ExsA-DNA binding assay; design: species or system P. aeruginosa; settings: Table 7, cell-free system; read-out: ExsA EC50
T2 construct: made in house
T2 sequence (P26993 1-278): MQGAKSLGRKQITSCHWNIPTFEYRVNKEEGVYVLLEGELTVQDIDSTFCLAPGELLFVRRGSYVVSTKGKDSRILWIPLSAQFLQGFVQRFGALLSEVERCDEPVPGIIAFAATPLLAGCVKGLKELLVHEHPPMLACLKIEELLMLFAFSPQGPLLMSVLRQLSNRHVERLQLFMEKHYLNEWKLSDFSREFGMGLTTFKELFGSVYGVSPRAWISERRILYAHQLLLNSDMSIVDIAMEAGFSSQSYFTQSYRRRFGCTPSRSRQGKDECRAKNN

[4] = biological target: LcrF (VirF) (Yersinia pestis, UniProt P28808); assay: biochemical; assay type: binding, Y. pseudotuberculosis; settings: EC50 for inhibition of LcrF(VirF)-DNA binding
Chain of LcrF (VirF) (P28808 whole entry, looked up): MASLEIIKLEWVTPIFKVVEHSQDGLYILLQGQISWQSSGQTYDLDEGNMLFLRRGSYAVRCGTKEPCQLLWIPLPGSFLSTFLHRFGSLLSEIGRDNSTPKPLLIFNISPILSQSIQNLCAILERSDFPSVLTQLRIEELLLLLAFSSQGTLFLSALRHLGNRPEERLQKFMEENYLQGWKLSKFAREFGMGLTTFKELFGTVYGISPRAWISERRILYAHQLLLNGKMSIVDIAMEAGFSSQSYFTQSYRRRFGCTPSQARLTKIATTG

[5] = tested on: P. aeruginosa; assay: P. aeruginosa cytotoxicity whole cell assay (J774 cells, LDH release); settings: relative to vehicle treated cells infected with wild type P. aeruginosa
[6] = tested on: Y. pseudotuberculosis; assay: microbe, parasite or virus in culture; settings: Yersinia pseudotuberculosis, J774, read-out: % Cytotoxicity
[7] = read-out: % Inhibition (SoxS binding to DNA)
[8] = read-out: in vitro SoxS activity: percent inhibition of DNA-protein binding

SMILES | inhibition at 50 µg/mL [1, 7] | EC50 [3] | EC50 [4] | further results
Nc1ccccc1-c1nc2ccc([N+](=O)[O-])cc2n1O [BN] | 0 to 29% | – | – | –
CS(=O)(=O)c1ccc2nc(-c3ccccc3)n(O)c2c1 [BI] | 30 to 69% | – | – | –
CC(C)(C)C(=O)Nc1ccc(-c2nc3ccc([N+](=O)[O-])cc3n2O)cc1 [CK] | – | – | – | Efficacy (log10 decrease in the CFU/g kidney tissue) [2]: *** (exhibited a 0-1.0 log decrease in CFU/g); inhibition at 25 µg/mL [1, 8]: > 70%
O=C(Nc1ccc(-c2nc3ccc([N+](=O)[O-])cc3n2O)cc1)c1ccccc1 [A] | > 70% | 10 to 25 µM | 10 to 25 µM | –
COc1ccc2nc(-c3ccccc3)n(O)c2c1 [AZ] | < 0% | – | – | –
O=C(O)COn1c(-c2ccccc2)nc2ccccc21 [AQ] | 0 to 29% | – | – | –
CCCOn1c(-c2ccccc2)nc2ccc([N+](=O)[O-])cc21 [AR] | < 0% | – | – | –
CC(=O)c1ccc2nc(-c3ccccc3)n(O)c2c1 [AW] | 30 to 69% | – | – | –
CC(=NO)c1ccc2nc(-c3ccccc3)n(O)c2c1 [BJ] | 30 to 69% | – | – | –
On1c(-c2ccccc2)nc2ccccc21 [AT] | < 0% | – | – | –
NCCOn1c(-c2ccccc2)nc2ccc([N+](=O)[O-])cc21 [BE] | < 0% | – | – | –
O=C(O)c1cccc(-c2nc3ccc([N+](=O)[O-])cc3n2O)c1 [BU] | – | – | – | Efficacy (log10 decrease in the CFU/g kidney tissue) [2]: *** (exhibited a 0-1.0 log decrease in CFU/g); EC50 [1]: > 5 µM
Nc1cccc(-c2nc3ccc([N+](=O)[O-])cc3n2O)c1 [BO] | 30 to 69% | – | – | inhibition at 50 µg/mL [1, 8]: < 29%
N#CCOn1c(-c2ccccc2)nc2ccc([N+](=O)[O-])cc21 [BD] | 0 to 29% | – | – | –
On1c(-c2ccccc2)nc2ccc(F)cc21 [AY] | 0 to 29% | – | – | –
Cc1ccc(-c2nc3ccc([N+](=O)[O-])cc3n2O)o1 [GC] | – | – | – | Efficacy (log10 decrease in the CFU/g kidney tissue) [2]: ** (exhibited a 1.1-2.0 log decrease in CFU/g); inhibition at 50 µg/mL ([1]; compound screening concentration of 50 μg/ml (footnote b), read-out: in vitro SoxS activity: percent inhibition of DNA-protein binding): 30 to 69%
O=C(/C=C/c1ccc(F)cc1)Nc1ccc(-c2nc3ccc([N+](=O)[O-])cc3n2O)cc1F [EL, (E)-N-[2-Fluoro-4-(1-hydroxy-6-nitro-1H-benzoimidazol-2-yl)-phenyl]-3-(4-fluoro-phenyl)-acrylamide] | – | 10 to 25 µM | 10 to 25 µM | Cytotoxicity at 50 μg/mL Pseudomonas [5]: * (reduced P. aeruginosa cytotoxicity to 99-75% of untreated, wild type levels at 50 mg/mL); activity at 50 µg/mL [6]: < 75%
O=C(Nc1ccc(-c2nc3ccc([N+](=O)[O-])cc3n2O)cc1)c1ccc(Cl)cc1 [CE] | – | – | – | inhibition at 25 µg/mL [1, 8]: > 70%
Nc1ccc(-c2nc3ccc([N+](=O)[O-])cc3n2O)cc1 [BL] | > 70% | – | – | –
N#Cc1ccc(C(=O)Nc2ccc(-c3nc4ccc([N+](=O)O)cc4n3O)cc2)cc1 [E] | – | 10 to 25 µM | 10 to 25 µM | Efficacy (log10 decrease in the CFU/g kidney tissue) [2]: ** (exhibited a 1.1-2.0 log decrease in CFU/g); activity at 50 µg/mL [6]: < 75%
COc1ccc(-c2nc3ccc([N+](=O)[O-])cc3n2O)cc1 [AV] | 0 to 29% | – | – | –
O=[N+]([O-])c1ccc2nc(-c3ccc(Oc4ccccc4)cc3)n(O)c2c1 [BW] | 0 to 29% | – | – | –
O=[N+]([O-])c1ccc2nc(-c3ccc(O)cc3)n(O)c2c1 [BG] | 30 to 69% | – | – | –
CCOC(=O)COn1c(-c2ccccc2)nc2ccc([N+](=O)[O-])cc21 [AP] | < 0% | – | – | –
O=[N+]([O-])c1ccc2nc(-c3ccc(Br)cc3)n(O)c2c1 [CA] | 0 to 29% | – | – | –
CC(=O)c1ccc(C(=O)Nc2ccc(-c3nc4ccc([N+](=O)[O-])cc4n3O)nc2)cc1 [DR] | – | 10 to 25 µM | > 25 µM | Cytotoxicity at 50 μg/mL Pseudomonas [5]: * (reduced P. aeruginosa cytotoxicity to 99-75% of untreated, wild type levels at 50 mg/mL); activity at 50 µg/mL [6]: < 75%

SMILES | inhibition at 50 µg/mL [1, 7] | EC50 [3] | EC50 [4] | further results
O=C(O)CCn1c(-c2ccccc2)nc2ccc([N+](=O)[O-])cc21 [AO] | < 0% | – | – | –
O=C(Nc1ccc(-c2nc3ccc([N+](=O)[O-])cc3n2O)cc1)c1ccc(F)c(F)c1 [DA] | – | 10 to 25 µM | 10 to 25 µM | Cytotoxicity at 50 μg/mL Pseudomonas [5]: * (reduced P. aeruginosa cytotoxicity to 99-75% of untreated, wild type levels at 50 mg/mL); activity at 50 µg/mL [6]: < 75%
COc1cc(NC(=O)/C=C/c2ccc(F)cc2)ccc1-c1nc2ccc([N+](=O)[O-])cc2n1O [ET] | – | 10 to 25 µM | 10 to 25 µM | Cytotoxicity at 50 μg/mL Pseudomonas [5]: * (reduced P. aeruginosa cytotoxicity to 99-75% of untreated, wild type levels at 50 mg/mL); activity at 50 µg/mL [6]: < 75%
O=C(O)c1ccc2nc(-c3ccccc3)n(O)c2c1 [BA] | 0 to 29% | – | – | –
N#Cc1ccc2nc(-c3ccccc3)n(O)c2c1 [BC] | 30 to 69% | – | – | –
O=[N+]([O-])c1ccc2nc(-c3ccccc3)n(OCCO)c2c1 [AS] | < 0% | – | – | –
CCc1cc(-c2nc3ccc([N+](=O)[O-])cc3n2O)ccc1NC(=O)c1ccc(C(C)=O)cc1 [DL] | – | 10 to 25 µM | 10 to 25 µM | Cytotoxicity at 50 μg/mL Pseudomonas [5]: * (reduced P. aeruginosa cytotoxicity to 99-75% of untreated, wild type levels at 50 mg/mL); activity at 50 µg/mL [6]: < 75%
Cc1cc(C(=O)Nc2ccc(-c3nc4ccc([N+](=O)[O-])cc4n3O)cc2)ccc1F [DD] | – | 10 to 25 µM | 10 to 25 µM | Cytotoxicity at 50 μg/mL Pseudomonas [5]: * (reduced P. aeruginosa cytotoxicity to 99-75% of untreated, wild type levels at 50 mg/mL); activity at 50 µg/mL [6]: < 75%
O=C(Nc1ccc(-c2nc3ccc([N+](=O)[O-])cc3n2O)cc1)c1cccc(Cl)c1 [CG] | – | – | – | EC50 [1]: 1 to 4.9 µM
COn1c(-c2ccccc2)nc2ccc([N+](=O)[O-])cc21 [BR] | 0 to 29% | – | – | –
CN(C)c1ccc2nc(-c3ccccc3)n(O)c2c1 [BF] | 0 to 29% | – | – | –
O=C(/C=C/c1ccc(F)c(CP(=O)(O)O)c1)Nc1ccc(-c2nc3ccc([N+](=O)[O-])cc3n2O)cc1 [DX] | – | 10 to 25 µM | 10 to 25 µM | Cytotoxicity at 50 μg/mL Pseudomonas [5]: * (reduced P. aeruginosa cytotoxicity to 99-75% of untreated, wild type levels at 50 mg/mL); activity at 50 µg/mL [6]: < 75%
O=C(Nc1ccc(-c2nc3ccc([N+](=O)[O-])cc3n2O)cc1)c1ccc(-c2cncnc2)cc1 [DC] | – | 10 to 25 µM | > 25 µM | Cytotoxicity at 50 μg/mL Pseudomonas [5]: * (reduced P. aeruginosa cytotoxicity to 99-75% of untreated, wild type levels at 50 mg/mL); activity at 50 µg/mL [6]: 75 to 99%
O=C(Nc1ccc(-c2nc3ccc([N+](=O)[O-])cc3n2O)cc1)C1=Cc2ccccc2OC1 [EY] | – | 10 to 25 µM | 10 to 25 µM | Cytotoxicity at 50 μg/mL Pseudomonas [5]: * (reduced P. aeruginosa cytotoxicity to 99-75% of untreated, wild type levels at 50 mg/mL); activity at 50 µg/mL [6]: < 75%
On1c(-c2ccccc2)nc2ccc(C(F)(F)F)cc21 [AX] | 0 to 29% | – | – | –
O=C(NCc1ccc(-c2nc3ccc([N+](=O)[O-])cc3n2O)cc1)c1ccccc1 [CD] | 30 to 69% | – | – | –
CC(=O)Nc1cccc(-c2nc3ccc([N+](=O)[O-])cc3n2O)c1 [BT] | 30 to 69% | – | – | –
O=[N+]([O-])c1ccc2nc(-c3ccccc3)n(O)c2c1 [GB] | 30 to 69% | – | – | –
COc1cc(NC(=O)c2ccc(C(C)=O)cc2)ccc1-c1nc2ccc([N+](=O)[O-])cc2n1O [ES] | – | 10 to 25 µM | > 25 µM | Cytotoxicity at 50 μg/mL Pseudomonas [5]: ** (reduced P. aeruginosa cytotoxicity below 75% of untreated, wild type levels at 50 mg/mL); activity at 50 µg/mL [6]: < 75%
O=C(Nc1ccc(-c2nc3ccc([N+](=O)[O-])cc3n2O)c(F)c1)c1ccc(F)cc1 [DS] | – | 10 to 25 µM | 10 to 25 µM | Cytotoxicity at 50 μg/mL Pseudomonas [5]: * (reduced P. aeruginosa cytotoxicity to 99-75% of untreated, wild type levels at 50 mg/mL); activity at 50 µg/mL [6]: < 75%
O=C(Nc1ccc(-c2nc3ccc([N+](=O)[O-])cc3n2O)cn1)c1ccc(F)cc1 [DU] | – | 10 to 25 µM | 10 to 25 µM | Cytotoxicity at 50 μg/mL Pseudomonas [5]: * (reduced P. aeruginosa cytotoxicity to 99-75% of untreated, wild type levels at 50 mg/mL); activity at 50 µg/mL [6]: < 75%
Cc1ccc(C(=O)Nc2ccc(-c3nc4ccc([N+](=O)[O-])cc4n3O)cc2)cc1 [D] | – | < 10 µM | 10 to 25 µM | activity at 50 µg/mL [6]: < 75%; EC50 [1]: 1 to 4.9 µM
CC(C)(C)c1ccc2nc(-c3ccccc3)n(O)c2c1 [BH] | < 0% | – | – | –
CC(=O)Nc1ccc(-c2nc3ccc([N+](=O)[O-])cc3n2O)cc1 [CH] | > 70% | – | – | –
CN(C)c1cccc(-c2nc3ccc([N+](=O)[O-])cc3n2O)c1 [BV] | 0 to 29% | – | – | –
N#Cc1ccc2nc(-c3ccc(NC(=O)c4ccc(F)cc4)cc3)n(O)c2c1 [CV] | – | 10 to 25 µM | > 25 µM | Cytotoxicity at 50 μg/mL Pseudomonas [5]: * (reduced P. aeruginosa cytotoxicity to 99-75% of untreated, wild type levels at 50 mg/mL); activity at 50 µg/mL [6]: < 75%
